Measured values: US12201610B2, “Compositions comprising aticaprant” (Janssen Pharmaceuticals, Inc., priority 2022, dated 2025)
Where two headings read alike, the source gives them in different places. Marks after values point to notes of the source that are not given here.

How the values were obtained:
[1] = test system: subjects with MDD; experiment: HAM-A6 total score (Example 6); type: in vivo, human; settings: 10 mg; Treatment Week 6; 59 subjects analyzed
From the text: v. To investigate the effect of aticaprant on symptoms of anxiety using the HAM-A and on core symptoms of anxiety using the HAM-A6 subscale.
• (i) Depression: Montgomery-Åsberg Depression Rating Scale (MADRS), Clinical Global Impression-Severity (CGI-S), Symptoms of Major Depressive Disorder Scale (SMDDS), and Self-assessment of treatment experience (SATE) • (ii) Anhedonia: Snaith-Hamilton Pleasure Scale (SHAPS) • (iii) Anxiety: Structured Interview Guide for the Hamilton Anxiety scale (SIGH-A) and HAM-A6 • (iv) Effects on Cognition: The Cognitive and Physical Functioning Questionnaire (CPFQ) • (v) Safety assessments

[2] = Phase 1 PK Part 2: relative bioavailability, dose proportionality, food effect of milled API tablet; type: in vivo, human
Description: This is a Phase 1, open-label, single dose, multicenter, 4-part study in healthy adult participants.
Potential participants will be screened from Day −28 to Day −2 to determine participants' eligibility for study participation. For Part 1, qualified participants will be admitted on Day −1 of each treatment period and will remain in-house for the total duration of the treatment (Day −1 until Day 5, with single-dose treatment on Day 1 and 96 hours of PK), whereas for Part 2, PK sampling will be done up to 120 hours (Day 6). Each dosed participant will have a safety follow-up on Day 10 to Day 14 after last dose of the study intervention.
The Part 2 of the study involves determination of relative bioavailability for tablet (Formulation Concept 2, i.e., milled (microfine) aticaprant formulation; see Table 10) and capsule formulations (see Example 6, study design, for description of capsule formulation) and dose proportionality and food effect for tablet formulation (Formulation Concept 2) in healthy adult participants (FIG. 26). Part 2 will consist of Subpart 2A and Subpart 2B consisting of a total of 4 periods. […] Participants will be assigned to 1 of 6 treatment sequences (Table 55) and will be administered the 3 treatments in a 3-way crossover. The same 24 participants who complete Subpart 2A will be enrolled in Subpart 2B. Subpart 2B consists of a fourth period to evaluate the food effect of a single dose of 10 mg aticaprant administered as 1×10 mg oral tablet (Formulation Concept 2) under fed conditions (Treatment H; Tables 54 and 56). A preliminary PK analysis will be conducted at the end of the food effect part (Subpart 2B) for all the periods from Part 2 and will include the food effect data.
For each individual participant, there will be a washout period of at least 7 days for Part 1 and at least 8 days for Part 2 between subsequent intakes of the study intervention. Day 1 of a treatment period (day of study intervention intake) is the first day of the washout period (also in between the study parts, if applicable).
Participants will be fasting in Part 1A and Part 2A. Participants will have been fed in Parts 1B and 2B. For a fasted condition, participants will fast (nothing to cat or drink except noncarbonated water) overnight for at least 10 hours before and until 4 hours after study intervention administration during each fasted treatment period. Approximately, 4 hours post-dose and after the 4-hour PK sampling, a standard lunch will be served at the study-site. Intake of water is allowed until 2 hours before the intake of the study intervention. Thereafter, water intake is only allowed for study intervention intake and for breakfast, if applicable. Drinking of water is allowed ad libitum from approximately 2 hours after dosing. For a fed condition, participants will consume, after an overnight fast (at least 10 hours), a standardized high-fat breakfast within a 20-minute period. […] Study intervention will be administered approximately 30 minutes after the start of the breakfast.
In Parts 1 and 2, plasma concentrations will be determined for aticaprant. Blood samples for determination of plasma concentrations of aticaprant will be collected predose and at the postdose time points starting on Day 1 as indicated in the Tables 57-58.
The following plasma PK parameters of aticaprant will be determined. A noncompartmental model with extravascular input will be used for the pharmacokinetic analysis.
Based on the individual concentration-time data, using the actual sampling times, the following PK parameters will be derived for aticaprant: […]

[3] = Dose proportionality: Treatment G (5 mg milled API tablet normalized to 10 mg, Test)/Treatment F (10 mg, Reference), fasting
[4] = Food effect: Treatment H (high-fat diet, Test)/Treatment F (fasted, Reference), 10 mg milled API tablet
[5] = Relative BA: Treatment F (10 mg milled API tablet, Test)/Treatment E (2 × 5 mg capsule, Reference), fasting
[6] = Treatment E: 2 × 5 mg oral capsule, fasting, mean
[7] = Treatment F: 1 × 10 mg Formulation Concept 2 (milled API tablet), fasting, mean (SD)
[8] = Treatment G (1 × 5 mg Formulation Concept 2, fasting), dose normalized to 10 mg, mean (SD)
[9] = Treatment G: 1 × 5 mg Formulation Concept 2 (milled API tablet), fasting, mean
[10] = Treatment H: 1 × 10 mg Formulation Concept 2 (milled API tablet), after high-fat breakfast, mean

Cc1cc(C)cc(C2CCCN2Cc2ccc(Oc3ccc(C(N)=O)cc3F)cc2)c1 (centres unmarked) [aticaprant, 3-fluoro-4-4-2-(3,5-dimethylphenyl)pyrrolidin-1-yl-methylphenoxybenzamide]
Change from Treatment Baseline in HAM-A6 Total Score, Arithmetic Mean (SD) [1]: −2.73 ± 2.651 scores on a scale
Geometric Mean Cmax ([2]; Dose proportionality, completers, Treatment G (Test): 1 × 5 mg Formulation Concept 2, fasting, Dose Normalized to 10 mg): 32.5 ng/mL
Ratio of Geometric Means, AUClast [2, 3]: 104.15%
Ratio of Geometric Means, AUC∞ [2, 3]: 106.40%
Ratio of Geometric Means, Cmax [2, 3]: 105.13%
Ratio of Geometric Means, AUClast [2, 4]: 134.90%
Ratio of Geometric Means, AUC∞ [2, 4]: 135.55%
Ratio of Geometric Means, Cmax [2, 4]: 107.30%
Ratio of Geometric Means, AUClast [2, 5]: 94.31%
Ratio of Geometric Means, AUC∞ [2, 5]: 93.66%
Ratio of Geometric Means, Cmax [2, 5]: 102.30%
% AUC∞, ex [2, 6]: 5.02%
CL/F [2, 6]: 34.8 L/h
λz [2, 6]: 0.024 h⁻¹
% AUC∞, ex [2, 7]: 5.50 (3.17) %
CL/F [2, 7]: 35.8 (12.1) L/h
Cmax [2, 7]: 32.4 (7.39) ng/mL
λz [2, 7]: 0.024 (0.007) 1/h
AUClast, G Dose Normalized [2, 8]: 314 (160) h * ng/mL
AUC∞, G Dose Normalized [2, 8]: 308 (74.1)^a h * ng/mL
Cmax, G Dose Normalized [2, 8]: 34.7 (11.6) ng/mL
% AUC∞, ex [2, 9]: 6.93%
CL/F [2, 9]: 34.7 L/h
λz [2, 9]: 0.030 h⁻¹
% AUC∞, ex [2, 10]: 4.92%
CL/F [2, 10]: 27.0 L/h
Cmax [2, 10]: 34.0 ng/mL
λz [2, 10]: 0.025 h⁻¹
AUC(0-t) ([2]; human, plasma, oral, 5 mg, Dose proportionality, completers, Treatment G (Test): 1 × 5 mg Formulation Concept 2, fasting, Dose Normalized to 10 mg, read-out: Geometric Mean AUClast): 285 ng·h/mL
AUC(0-inf) ([2]; human, plasma, oral, 5 mg, Dose proportionality, completers, Treatment G (Test): 1 × 5 mg Formulation Concept 2, fasting, Dose Normalized to 10 mg, read-out: Geometric Mean AUC∞): 296 ng·h/mL
half-life ([2]; human, plasma, oral, 5 mg, Treatment G: 1 × 5 mg Formulation Concept 2 (milled API tablet), fasting, mean): 26.6 h
AUC(0-t) ([2]; human, plasma, oral, 5 mg, Treatment G: 1 × 5 mg Formulation Concept 2 (milled API tablet), fasting, mean, read-out: AUClast): 157 ng·h/mL
AUC(0-inf) ([2]; human, plasma, oral, 5 mg, Treatment G: 1 × 5 mg Formulation Concept 2 (milled API tablet), fasting, mean, read-out: AUC∞): 154 ng·h/mL
Cmax ([2]; human, plasma, oral, 5 mg, Treatment G: 1 × 5 mg Formulation Concept 2 (milled API tablet), fasting, mean, read-out: Cmax): 17.4 ng/mL
Tmax ([2]; human, plasma, oral, 5 mg, Treatment G: 1 × 5 mg Formulation Concept 2 (milled API tablet), fasting, median): 1 h
AUC(0-t) ([2]; human, plasma, oral, 10 mg, Dose proportionality, completers, Treatment F (Reference): 1 × 10 mg Formulation Concept 2, fasting, read-out: Geometric Mean AUClast): 274 ng·h/mL
AUC(0-inf) ([2]; human, plasma, oral, 10 mg, Dose proportionality, completers, Treatment F (Reference): 1 × 10 mg Formulation Concept 2, fasting, read-out: Geometric Mean AUC∞): 279 ng·h/mL
Cmax ([2]; human, plasma, oral, 10 mg, Dose proportionality, completers, Treatment F (Reference): 1 × 10 mg Formulation Concept 2, fasting, read-out: Geometric Mean Cmax): 30.9 ng/mL
AUC(0-t) ([2]; human, plasma, oral, 10 mg, Food effect, completers, Treatment F (Reference): 1 × 10 mg milled API tablet, fasted, read-out: Geometric Mean AUClast): 279 ng·h/mL
AUC(0-inf) ([2]; human, plasma, oral, 10 mg, Food effect, completers, Treatment F (Reference): 1 × 10 mg milled API tablet, fasted, read-out: Geometric Mean AUC∞): 280 ng·h/mL
Cmax ([2]; human, plasma, oral, 10 mg, Food effect, completers, Treatment F (Reference): 1 × 10 mg milled API tablet, fasted, read-out: Geometric Mean Cmax): 31.3 ng/mL
AUC(0-t) ([2]; human, plasma, oral, 10 mg, Food effect, completers, Treatment H (Test): 1 × 10 mg milled API tablet, high-fat diet, read-out: Geometric Mean AUClast): 377 ng·h/mL
AUC(0-inf) ([2]; human, plasma, oral, 10 mg, Food effect, completers, Treatment H (Test): 1 × 10 mg milled API tablet, high-fat diet, read-out: Geometric Mean AUC∞): 379 ng·h/mL
AUC(0-t) ([2]; human, plasma, oral, 10 mg, Relative BA, completers, Treatment F (Test): 1 × 10 mg Formulation Concept 2 (milled API tablet), fasting, read-out: Geometric Mean AUClast): 274 ng·h/mL
AUC(0-inf) ([2]; human, plasma, oral, 10 mg, Relative BA, completers, Treatment F (Test): 1 × 10 mg Formulation Concept 2 (milled API tablet), fasting, read-out: Geometric Mean AUC∞): 279 ng·h/mL
Cmax ([2]; human, plasma, oral, 10 mg, Relative BA, completers, Treatment F (Test): 1 × 10 mg Formulation Concept 2 (milled API tablet), fasting, read-out: Geometric Mean Cmax): 30.9 ng/mL
half-life ([2]; human, plasma, oral, 10 mg, Treatment F: 1 × 10 mg Formulation Concept 2 (milled API tablet), fasting, mean (SD)): 31 h
AUC(0-t) ([2]; human, plasma, oral, 10 mg, Treatment F: 1 × 10 mg Formulation Concept 2 (milled API tablet), fasting, mean (SD), read-out: AUClast): 297 ng·h/mL
AUC(0-inf) ([2]; human, plasma, oral, 10 mg, Treatment F: 1 × 10 mg Formulation Concept 2 (milled API tablet), fasting, mean (SD), read-out: AUC∞): 318 ng·h/mL
Tmax ([2]; human, plasma, oral, 10 mg, Treatment F: 1 × 10 mg Formulation Concept 2 (milled API tablet), fasting, median (range)): 1.5 h
half-life ([2]; human, plasma, oral, 10 mg, Treatment H: 1 × 10 mg Formulation Concept 2 (milled API tablet), after high-fat breakfast, mean): 30.8 h
AUC(0-t) ([2]; human, plasma, oral, 10 mg, Treatment H: 1 × 10 mg Formulation Concept 2 (milled API tablet), after high-fat breakfast, mean, read-out: AUClast): 388 ng·h/mL
AUC(0-inf) ([2]; human, plasma, oral, 10 mg, Treatment H: 1 × 10 mg Formulation Concept 2 (milled API tablet), after high-fat breakfast, mean, read-out: AUC∞): 388 ng·h/mL
Tmax ([2]; human, plasma, oral, 10 mg, Treatment H: 1 × 10 mg Formulation Concept 2 (milled API tablet), after high-fat breakfast, median): 2 h
AUC(0-t) ([2]; human, plasma, po, 10 mg, Relative BA, completers, Treatment E (Reference): 2 × 5 mg oral capsule, fasting, read-out: Geometric Mean AUClast): 291 ng·h/mL
AUC(0-inf) ([2]; human, plasma, po, 10 mg, Relative BA, completers, Treatment E (Reference): 2 × 5 mg oral capsule, fasting, read-out: Geometric Mean AUC∞): 297 ng·h/mL
Cmax ([2]; human, plasma, po, 10 mg, Relative BA, completers, Treatment E (Reference): 2 × 5 mg oral capsule, fasting, read-out: Geometric Mean Cmax): 30.2 ng/mL
half-life ([2]; human, plasma, po, 10 mg, Treatment E: 2 × 5 mg oral capsule, fasting, mean): 30.5 h
AUC(0-t) ([2]; human, plasma, po, 10 mg, Treatment E: 2 × 5 mg oral capsule, fasting, mean, read-out: AUClast): 308 ng·h/mL
AUC(0-inf) ([2]; human, plasma, po, 10 mg, Treatment E: 2 × 5 mg oral capsule, fasting, mean, read-out: AUC∞): 307 ng·h/mL
Cmax ([2]; human, plasma, po, 10 mg, Treatment E: 2 × 5 mg oral capsule, fasting, mean, read-out: Cmax): 31.7 ng/mL
Tmax ([2]; human, plasma, po, 10 mg, Treatment E: 2 × 5 mg oral capsule, fasting, median): 2 h
